This passage reports IC50 results from patent US9187424B1, “Aryl dihydropyridinones and piperidinone MGAT2 inhibitors” (Bristol-Myers Squibb Company, priority 2011, dated 2015).

The target of the test is Human MGAT-2 (Homo sapiens (Human), UniProt Q3SYC2). Briefly: MGAT LCMS Assay (human MGAT-2).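 Also: diolein product quantified by LC/MS with positive APCI, expressed as peak area ratio versus an internal standard, and this ratio used to derive IC50.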 The test is classed as biochemical. The conditions noted are these: human MGAT-2 membranes expressed in Sf9 cells; 2-oleoylglycerol and oleoyl-Coenzyme A; read-out: h-MGAT2 IC50 (nM) LCMS Assay.
Sequence of Human MGAT-2 (Q3SYC2 whole entry): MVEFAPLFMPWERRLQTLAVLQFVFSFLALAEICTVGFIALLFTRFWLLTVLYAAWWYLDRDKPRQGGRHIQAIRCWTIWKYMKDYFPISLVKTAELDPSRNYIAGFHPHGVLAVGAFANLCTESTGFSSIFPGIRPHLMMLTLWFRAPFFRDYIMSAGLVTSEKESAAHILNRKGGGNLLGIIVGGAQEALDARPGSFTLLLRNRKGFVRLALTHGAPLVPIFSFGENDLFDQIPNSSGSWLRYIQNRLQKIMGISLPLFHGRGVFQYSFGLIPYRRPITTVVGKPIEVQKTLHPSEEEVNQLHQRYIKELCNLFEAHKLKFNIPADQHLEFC

Consider `COc1ccc(NC(=O)C2=C(c3ccc(C)cc3)CC(C)(C(=O)NCCCc3ccccc3)NC2=O)cc1` (centres unmarked) [Example 175], for which the IC50 (commonly the concentration that gives 50% inhibition) came to 264 nM.
`COc1ccc(C2=C(NC(=O)c3cc(C)no3)C(=O)NC(c3ccc(OCCCC(F)(F)F)cc3)(C(F)(F)F)C2)cc1` (centres unmarked) [Example 176]: the IC50 is 3 nM.
As for `CCCCCCCCNC(=O)C1(C)CC(c2ccc(C)cc2)=C(C#N)C(=O)N1` (centres unmarked) [Example 177], the IC50 was 399 nM.
As to `COc1ccc(NC(=O)C2=C(c3ccc(C)cc3)C(F)(F)C(c3ccc(OC)cc3)(C(F)(F)F)NC2=O)cc1` (centres unmarked) [Example 181], the concentration for half-maximal inhibition (IC50) turned out to be 2050 nM.
The value for `COc1ccc(Cn2cc(C3(C(F)(F)F)CC(c4ccc(C)cc4)=C(c4nn[nH]n4)C(=O)N3)cn2)cc1` (centres unmarked) [Example 182] was 2050 nM.
`Cc1ccc(C2=C(C#N)C(=O)NC(c3ccc(OCCCCCC(F)(F)F)cc3)(C(F)(F)F)C2)cc1` (centres unmarked) [Example 184]: the IC50 stood at 76 nM.
Turning to `Cc1ccc(C2=C(NC(=O)c3cc(-c4ccccc4Cl)no3)C(=O)NC(c3ccc(OCCCC(F)(F)F)cc3)(C(F)(F)F)C2)cc1` (centres unmarked) [Example 185], the IC50 amounted to 121 nM.
Regarding `Cc1ccc(C2=C(n3cnnc3C)C(=O)NC(c3ccc(OCCCC(F)(F)F)cc3)(C(F)(F)F)C2)cc1` (centres unmarked) [Example 186], the IC50 came to 229 nM.
`COc1cc(C(=O)NC2=C(c3ccc(C)cc3)CC(c3ccc(OCCCC(F)(F)F)cc3)(C(F)(F)F)NC2=O)on1` (centres unmarked) [Example 187]: the IC50 is 4 nM.
Turning to `COc1ccc(NC(=O)C2=C(c3ccc(C)cc3)CC(C)(C(=O)NCC(C)C)NC2=O)cc1` (centres unmarked) [Example 188], the IC50 was found to be 1520 nM.
Take `COc1ccc(NC(=O)C2=C(c3ccc(C)cc3)CC(C)(C(=O)NCc3ccccc3)NC2=O)cc1` (centres unmarked) [Example 189]: the IC50 stood at 1160 nM.
On to `Cc1ccc(C2=C(NC(=O)c3cc(-c4cccc(F)c4)no3)C(=O)NC(c3ccc(OCCCC(F)(F)F)cc3)(C(F)(F)F)C2)cc1` (centres unmarked) [Example 190], for which the IC50 is 155 nM.
Consider `CCCCCCC(=O)CNC(=O)C1(C)CC(c2ccc(C)cc2)=C(NC(=O)c2ccc(OC)cc2)C(=O)N1` (centres unmarked) [Example 191], for which the IC50 was 797 nM.
With `Cc1ccc(C2=C(NC(=O)n3ncnn3)C(=O)NC(c3ccc(OCCCC(F)(F)F)cc3)(C(F)(F)F)C2)cc1` (centres unmarked) [Example 192], the IC50 came out at 433 nM.
For the molecule `COc1ccc(C2=C(c3nn[nH]n3)C(=O)NC(c3ccc(OCCCC(F)(F)F)cc3)(C(F)(F)F)C2)cc1` (centres unmarked) [Example 193], the IC50 stood at 46 nM.
The value for `CCCCCC#CC1(C(F)(F)F)CC(c2ccc(C)cc2)=C(c2cn[nH]n2)C(=O)N1` (centres unmarked) [Example 194] was 6 nM; that for `CCCCCCCC#CC1(C(F)(F)F)CC(c2ccc(C)cc2)=C(c2cn[nH]n2)C(=O)N1` (centres unmarked) [Example 195] was 33 nM; that for `CCCCCCCC#CC1(C(F)(F)F)CC(c2ccc(C)cc2)=C(c2cn[nH]n2)C(=O)N1` (centres unmarked) [Example 196] was 826 nM.
Turning to `Cc1ccc(C2=C(c3cn[nH]n3)C(=O)NC(C#CC3CC3)(C(F)(F)F)C2)cc1` (centres unmarked) [Example 197], the IC50 was 178 nM.
In the case of `Cc1ccc(C2=C(c3cn[nH]n3)C(=O)NC(C#CCCc3ccccc3)(C(F)(F)F)C2)cc1` (centres unmarked) [Example 198] it was 16 nM; in that of `Cc1ccc(C2=C(c3cn[nH]n3)C(=O)NC(C#CCCC(C)C)(C(F)(F)F)C2)cc1` (centres unmarked) [Example 199], 16 nM; in that of `Cc1ccc(C2=C(NC(=O)c3ccc(OC(F)(F)F)cc3)C(=O)NC(c3cnn(CCCCCC(F)(F)F)c3)(C(F)(F)F)C2)cc1` (centres unmarked) [Example 200], 37 nM.
As to `Cc1ccc(C2=C(NC(=O)c3ccc(OC(F)F)cc3)C(=O)NC(c3cnn(CCCCCC(F)(F)F)c3)(C(F)(F)F)C2)cc1` (centres unmarked) [Example 201], the IC50 came to 24 nM.
Take `COCc1ccc(C2=C(c3nn[nH]n3)C(=O)NC(c3ccc(OCCCC(F)(F)F)cc3)(C(F)(F)F)C2)cc1` (centres unmarked) [Example 202]: the IC50 was determined as 89 nM.
Regarding `CCOCc1ccc(C2=C(c3nn[nH]n3)C(=O)NC(c3ccc(OCCCC(F)(F)F)cc3)(C(F)(F)F)C2)cc1F` (centres unmarked) [Example 203], the IC50 worked out at 59 nM.
With `O=C1NC(c2ccc(OCCCC(F)(F)F)cc2)(C(F)(F)F)CC(c2ccc(OC(F)F)cc2)=C1c1nn[nH]n1` (centres unmarked) [Example 205], the concentration for half-maximal inhibition (IC50) came out at 13 nM.
`O=C1NC(c2ccc(OCCCC(F)(F)F)cc2)(C(F)(F)F)CC(c2ccc3ccccc3c2)=C1c1nn[nH]n1` (centres unmarked) [Example 207]: the IC50 worked out at 11 nM.
With `CCOc1ccc(C2=C(c3nn[nH]n3)C(=O)NC(c3ccc(OCCCC(F)(F)F)cc3)(C(F)(F)F)C2)cc1` (centres unmarked) [Example 208], the IC50 was 30 nM.
In the case of `O=C1NC(c2ccc(OCCCC(F)(F)F)cc2)(C(F)(F)F)CC(c2ccc3c(c2)OCCO3)=C1c1nn[nH]n1` (centres unmarked) [Example 209], the IC50 stood at 37 nM.
For the molecule `O=C1NC(c2ccc(OCCCC(F)(F)F)cc2)(C(F)(F)F)CC(c2ccc3c(c2)CCCC3)=C1c1nn[nH]n1` (centres unmarked) [Example 210], the IC50 worked out at 2 nM.
For `O=C1NC(c2ccc(OCCCC(F)(F)F)cc2)(C(F)(F)F)CC(c2ccc3c(c2)OCO3)=C1c1nn[nH]n1` (centres unmarked) [Example 211], the IC50 came out at 97 nM.
In the case of `COc1ccc(C2=C(c3nn[nH]n3)C(=O)NC(c3ccc(OCCCC(F)(F)F)cc3)(C(F)(F)F)C2)c2c1CCC2` (centres unmarked) [Example 212], the IC50 is 416 nM.
`Cc1ccc(C2=C(c3nn[nH]n3)C(=O)NC(c3ccc(OCCCC(F)(F)F)cc3)(C(F)F)C2)cc1` (centres unmarked) [Example 213]: the 50% inhibitory concentration (IC50) is 1100 nM.
`COc1ccc(C(=O)NC2=C(c3ccc(C)cc3)CC(c3ccc(OCCCC(F)(F)F)cc3)NC2=O)cc1` (centres unmarked) [Example 214]: the IC50 came out at 12 nM.
Turning to `COc1ccc(C2=C(C#N)C(=O)NC(c3ccc(OCCCC(F)(F)F)cc3)(C(F)(F)F)C2)cc1C` (centres unmarked) [Example 215], the IC50 was 11 nM.
For the molecule `COc1ccc(C2=C(C#N)C(=O)NC(c3ccc(OCCCC(F)(F)F)cc3)(C(F)(F)F)C2)cc1OC` (centres unmarked) [Example 216], the IC50 amounted to 440 nM.
For `Cc1ccc(C2=C(C#N)C(=O)NC(c3ccc(OCCCC(F)(F)F)cc3)(C(F)(F)F)C2)cc1C` (centres unmarked) [Example 217], the IC50 is 118 nM.
In the case of `COc1ccc(C2=C(C#N)C(=O)NC(c3ccc(OCCCC(F)(F)F)cc3)(C(F)(F)F)C2)cc1F` (centres unmarked) [Example 218], the IC50 stood at 166 nM.
On to `Cc1ccc(C2=C(C#N)C(=O)NC(c3ccc(OCCCC(F)(F)F)cc3)(C(F)(F)F)C2)cc1F` (centres unmarked) [Example 219], for which the concentration for half-maximal inhibition (IC50) turned out to be 172 nM.
Consider `N#CC1=C(c2ccc(Cl)c(F)c2)CC(c2ccc(OCCCC(F)(F)F)cc2)(C(F)(F)F)NC1=O` (centres unmarked) [Example 220], for which the IC50 was 13 nM.
Regarding `Cc1cc(C2=C(C#N)C(=O)NC(c3ccc(OCCCC(F)(F)F)cc3)(C(F)(F)F)C2)ccc1Cl` (centres unmarked) [Example 221], the IC50 came to 152 nM.
Regarding `N#CC1=C(c2ccc(Cl)c(Cl)c2)CC(c2ccc(OCCCC(F)(F)F)cc2)(C(F)(F)F)NC1=O` (centres unmarked) [Example 222], the IC50 turned out to be 733 nM.
In the case of `COc1ccc(C2=C(C#N)C(=O)NC(c3ccc(OCCCC(F)(F)F)cc3)(C(F)(F)F)C2)cc1Cl` (centres unmarked) [Example 223] it was 112 nM; in that of `COOSNc1ccc(C2=C(C#N)C(=O)NC(c3ccc(OCCCC(F)(F)F)cc3)(C(F)(F)F)C2)cc1` (centres unmarked) [Example 225], 889 nM.
With `CCOc1ccc(C2=C(C#N)C(=O)NC(c3ccc(OCCCC(F)(F)F)cc3)(C(F)(F)F)C2)cc1Cl` (centres unmarked) [Example 226], the IC50 worked out at 206 nM.
With `Cc1ccc(C2=C(C#N)C(=O)NC(c3cnn(CCCCC(F)(F)F)c3)(C(F)(F)F)C2)cc1` (centres unmarked) [Example 227], the IC50 amounted to 63 nM.
In the case of `COc1ccc(C(=O)NC2=C(c3ccc(C)cc3)CC(c3cnn(CCCCCC(F)(F)F)c3)(C(F)(F)F)NC2=O)cc1` (centres unmarked) [Example 228] it was 7 nM; in that of `COc1ccc(C(=O)NC2=C(c3ccc(C)cc3)CC(c3cnn(CCCCC(F)(F)F)c3)(C(F)(F)F)NC2=O)cc1` (centres unmarked) [Example 229], 25 nM.
Take `CCCCCn1cc(C2(C(F)(F)F)CC(c3ccc(C)cc3)=C(C#N)C(=O)N2)cn1` (centres unmarked) [Example 230]: the IC50 is 1530 nM.
As to `Cc1ccc(C2=C(NC(=O)c3ccn(C)n3)C(=O)NC(c3ccc(OCCCC(F)(F)F)cc3)(C(F)(F)F)C2)cc1` (centres unmarked) [Example 231], the IC50 was 34 nM.
In the case of `COc1ccc(C(=O)NC2=C(c3ccc(C)cc3)CC(c3ccc(OCCCC(F)(F)F)cc3)(C(F)(F)F)NC2=O)nn1` (centres unmarked) [Example 232] it was 6 nM; in that of `Cc1ccc(C2=C(c3nn[nH]n3)C(=O)NC(c3ccc(Br)cc3)(C(F)(F)F)C2)cc1` (centres unmarked) [Example 233], 639 nM.
Consider `O=C1NC(c2ccc(OCCCC(F)(F)F)cc2)(C(F)(F)F)CC(c2ccc(Br)cc2)=C1c1nn[nH]n1` (centres unmarked) [Example 234], for which the IC50 turned out to be 40 nM.
For the molecule `O=C1NC(c2ccc(OCCCC(F)(F)F)cc2)(C(F)(F)F)CC(c2ccc(C3CC3)cc2)=C1c1nn[nH]n1` (centres unmarked) [Example 235], the IC50 was found to be 22 nM.
Take `O=C1NC(c2ccc(OCCCC(F)(F)F)cc2)(C(F)(F)F)CC(c2ccc(-n3cccn3)cc2)=C1c1nn[nH]n1` (centres unmarked) [Example 236]: the IC50 came to 489 nM.
Consider `O=C1NC(c2ccc(OCCCC(F)(F)F)cc2)(C(F)(F)F)CC(c2ccc3c(c2)CCO3)=C1c1nn[nH]n1` (centres unmarked) [Example 237], for which the IC50 stood at 130 nM.
The value for `CN(C)c1ccc(C2=C(c3nn[nH]n3)C(=O)NC(c3ccc(OCCCC(F)(F)F)cc3)(C(F)(F)F)C2)cc1` (centres unmarked) [Example 238] was 7 nM.
With `Cc1ccc(C2=C(NC(=O)CS(C)(=O)=O)C(=O)NC(c3ccc(OCCCC(F)(F)F)cc3)(C(F)(F)F)C2)cc1` (centres unmarked) [Example 239], the IC50 is 15 nM.
As to `COc1ccc(C2=C(c3nn[nH]n3)C(=O)NC(c3ccc(OCC(F)(F)F)cc3)(C(F)(F)F)C2)cc1` (centres unmarked) [Example 240], the concentration for half-maximal inhibition (IC50) was 7 nM.
On to `O=C1NC(c2ccc(OCCC(F)(F)F)cc2)(C(F)(F)F)CC(c2ccc(OC(F)(F)F)cc2)=C1c1nn[nH]n1` (centres unmarked) [Example 242], for which the IC50 turned out to be 44 nM.
With `O=C1NC(c2ccc(OCCCC(F)(F)F)cc2)(C(F)(F)F)CC(c2ccc(OC(F)(F)F)cc2)=C1c1nn[nH]n1` (centres unmarked) [Example 243], the 50% inhibitory concentration (IC50) is 14 nM.
Turning to `COc1ccc(C2=C(c3nn[nH]n3)C(=O)NC(c3ccc(OCCCC(F)(F)F)cc3)(C(F)(F)F)C2)cc1` (centres unmarked) [Example 244], the IC50 amounted to 61 nM.
